Earlier results on six compounds are cited in patent US20140134693A1, “Eliminating the Need of Acidification in Bioethanol Production” (Anitox Corporation, priority 2012, published 2014).

Like-named read-outs stand apart in the source and are kept apart here.

Data set [1] relates to Lactobacillus. The conditions noted are these: 600 mg/L.
Data set [2] deals with Lactobacillus.
The subject of data set [3] is bacteria. Conditions: sugarcane ethanol production.
Data set [4] has as its system Most bacteria, with the exception of Lactobacillus casei. Conditions: ethanol fermentation process.

For `O=C(O)CCC(=O)O` [Succinic acid], the “reduction of Lactobacillus levels” value in data set [1] is 78%; in data set [1] (in the presence of ethanol), “up to 96%”.

As to `NC(N)=O.OO` [Urea hydrogen peroxide], in data set [2], the “bactericidal activity against Lactobacillus (in words)” value is recorded as “excellent bactericidal activity”.

In the case of `CC1(C)S[C@@H]2[C@H](NC(=O)[C@H](N)c3ccccc3)C(=O)N2[C@H]1C(=O)O` [ampicillin], the bacteria resistant in data set [3] was 97%.

Take `OO` [hydrogen peroxide]: in data set [4], the concentration controlling bacteria is reported as 1 to 10 mM.

For penicillin, the bacteria resistant in data set [3] is 97%.

Consider virginiamycin, for which the bacteria resistant in data set [3] is listed as 48%.
